Reference: article PMC8241751, “Influence of the Dabcyl group on the cellular uptake of cationic peptides: short oligoarginines as efficient cell-penetrating peptides” (Amino Acids, 2021)
“And” between values parts separate entries of the source, which are not always exact repeats. Equal values may be shown once. Where a SMILES comes first, the peptide text is derived from it. The star is where a group is joined. 5FAM = O=C1OC2(c3ccc(O)cc3Oc3cc(O)ccc32)c2ccc(C(=O)*)cc21; X1 = CN(C)c1ccc(/N=N/c2ccc(C(=O)*)cc2)cc1

Legend:
MCF-7 cells = assay: In vitro cytostatic activity (MTT) on MCF-7; format: cell-based, human; settings: 3 h incubation, then 3 days in serum-containing medium, MTT assay, ± sd, three independent experiments with four parallels
Description: The cells (HL-60 or MCF-7) were grown to confluency and were plated into 96-well plate with initial cell number of 5 × 10^3 per well. After 24 h incubation at 37 °C, cells were treated with the compounds at 1.28 × 10^–3–100 μM concentration range for 3 h in 200 μL final volume. Control cells were treated with serum free medium at 37 °C for 3 h. After incubation the cells were washed twice with serum free medium. For the analysis of the in vitro cytostatic effect, cells were cultured for an additional 72 h in serum containing medium. On day 4, MTT assay was carried out to determine the IC50 values of the compounds. Briefly, 45 μL of MTT solution was added to each well (2 mg/mL, dissolved in serum-free medium). […] The precipitated purple crystals were dissolved in 100 μL DMSO and the absorbance was determined at λ = 540 nm and λ = 620 nm using ELISA plate reader (iEMSReader, Labsystems, Finland). The percent of cytostasis was calculated using the following equation: Cytostatic effect (%) = [1 − (ODtreated/ODcontrol)] × 100; where ODtreated and ODcontrol correspond to the optical densities of the treated and the untreated control cells, respectively. […] The curves were defined using MicrocalTM Origin (version 9.2) software: cytostasis was plotted as a function of concentration, fitted to a sigmoidal curve, and based on this curve, the IC50 value was determined.

MDA-MB-231 cells = assay: In vitro cytostatic activity (MTT) on MDA-MB-231; format: cell-based, human; settings: 3 h incubation, then 3 days in serum-containing medium, MTT assay, ± sd
HL-60 cells [1] = assay: In vitro cytostatic activity (MTT) on HL-60; format: cell-based, human; settings: HL-60; 3 h incubation, then 3 days in serum-containing medium; MTT assay; ± sd, three independent experiments with four parallels
Description: The cells (HL-60 or MCF-7) were grown to confluency and were plated into 96-well plate with initial cell number of 5 × 10^3 per well. After 24 h incubation at 37 °C, cells were treated with the compounds at 1.28 × 10^–3–100 μM concentration range for 3 h in 200 μL final volume. Control cells were treated with serum free medium at 37 °C for 3 h. After incubation the cells were washed twice with serum free medium. For the analysis of the in vitro cytostatic effect, cells were cultured for an additional 72 h in serum containing medium. On day 4, MTT assay was carried out to determine the IC50 values of the compounds. Briefly, 45 μL of MTT solution was added to each well (2 mg/mL, dissolved in serum-free medium). Following the 4 h incubation, plates were centrifuged at 900 g for 5 min, and the supernatant was removed. The precipitated purple crystals were dissolved in 100 μL DMSO and the absorbance was determined at λ = 540 nm and λ = 620 nm using ELISA plate reader (iEMSReader, Labsystems, Finland). The percent of cytostasis was calculated using the following equation: Cytostatic effect (%) = [1 − (ODtreated/ODcontrol)] × 100; where ODtreated and ODcontrol correspond to the optical densities of the treated and the untreated control cells, respectively. In each case three independent experiments were carried out with four parallel measurements. […] The curves were defined using MicrocalTM Origin (version 9.2) software: cytostasis was plotted as a function of concentration, fitted to a sigmoidal curve, and based on this curve, the IC50 value was determined.

HL-60 cells [2] = assay: Cellular uptake by flow cytometry on HL-60 cells; format: cell-based, human; settings: HL-60, 90 min, 37 °C, serum-free, concentrations of the two values not stated, Dabcyl quenches Cf
Description: HL-60 cells were cultured as described above. To study the cellular uptake of fluorescent labelled compounds, 10^5 cells per well were plated on 24-well plates. After 24 h incubation at 37 °C, cells were treated with the compounds solved in the corresponding serum-free media for 90 min. The cellular uptake was analysed at 1, 5 and 10 µM concentrations. Cells treated with serum-free media for 90 min were used as control. After incubation, treatment solutions were removed and the cells were treated with 100 μL trypsin for 2 min to remove the membrane proteins in order to eliminate non-specific binding of conjugates. The effect of trypsin was terminated by 900 μL HPMI (glucose, NaHCO3, NaCl, HEPES, KCl, MgCl2, CaCl2, Na2HPO4·2H2O) (Kapus et al. [1994]) containing 10% foetal calf serum, and the cells were transferred from the plate to FACS-tubes. Cells were centrifuged at 216 g at 4 °C for 5 min and the supernatant was removed. After this procedure, cells were resuspended in 500 µL HPMI, and the intracellular fluorescence intensity of HL-60 cells was monitored (on channel FITC LP505; emission at λ = 505 nm; LP 505, BP 530/30) by flow cytometry (BD LSR II, BD Bioscience, San Jose, CA, equipped with 488 nm; Coherent Sapphire, 22 mW laser.) which is proportional to the cellular uptake. Data were analysed with FACSDiVa 5.0 software.

CHO-K1 cells [3] = assay: Relative quantification of total internalised peptide by flow cytometry; settings: CHO-K1, 1 h, DMEM-F12, internalisation ratio by flow cytometry, intact cells, 20.000 cells
Description: After incubation and washing the cells with HBSS, 500 μL 0.05% trypsin/EDTA 0.05% (37 °C) or 500 µL pronase 0.05% in 100 mM Tris-buffer (4 °C) was added for 5 min to hydrolyze the remaining extracellular peptide, the membrane-bound peptide and to detach cells. After addition of 100 µL enzyme inhibitors (complete mini at 4 °C (Roche) or trypsin inhibitor (soybean inhibitor 5 mg/mL) at 37 °C mixed with 100 μL bovine serum albumin (1 mg/mL). Cells were transferred into a microtube, centrifuged, washed with 1 mL 50 mM Tris-buffer pH 7.4, 0.1% BSA, and the cell pellet was suspended in 400 μL of PBS. The fluorescence of individual cells was analysed with a FACS Calibur flow cytometer. 20.000 cells were measured for each experimental condition. The mean fluorescence of a sample was obtained by subtracting the autofluorescence of cells from the measured mean fluorescence of cells in the presence of the peptide.

CHO-K1 cells [4] = assay: Absolute quantification of total internalised peptide by fluorometry; settings: for Total (37 °C–4 °C) (pmoles) Endocyt. / 4 °C/37 °C (Fluoro): CHO-K1, 60 min; for Total (37 °C–4 °C) (pmoles) Endocyt.: difference of fluorometry values at 37 °C and 4 °C; for 4 °C/37 °C (Fluoro): internalisation ratio by fluorometry; for Total 4 °C (pmoles) Transloc. / Total 37 °C (pmoles) Endocyt. + Transloc.: one million CHO-K1 cells, DMEM-F12, 60 min, cell lysis, fluorometry 525 nm vs calibration curve, mean values; for Total 4 °C (pmoles) Transloc.: pronase wash; for Total 37 °C (pmoles) Endocyt. + Transloc.: trypsin wash
Description: We used the quantification method described earlier (Illien et al. [2016]). […] After incubation with peptides and washing the cells with HBSS, 500 μL 0.05% trypsin/EDTA 0.05% (37 °C) or 500 µL pronase 0.05% in 100 mM Tris pH 7.4 (4 °C) was added for 5 min to hydrolyze the remaining extracellular peptide, the membrane-bound peptide and to detach cells. After addition of 100 µL enzyme inhibitors (complete mini at 4 °C (Roche) or trypsin inhibitor (soybean inhibitor 5 mg/mL) at 37 °C mixed with 100 μL bovine serum albumin (1 mg/mL), cells were transferred into a microtube, centrifuged, washed with 1 mL 50 mM Tris buffer pH 7.4, 0.1% BSA, and lysed in 200 μL 50 mM Tris pH 7.4, 1 M NaCl, 1% Nonident P40. The samples were then sonicated for 15 min (to homogenise samples) and centrifugated for 10 min at 16.000 g. Fluorescence intensity in the supernatants was monitored with a MOS 200 M fluorimeter (Biologic SAS) and the maximal intensity was detected around λ = 525 nm. The maximal intensity was retained for the calibration curve and for quantification of samples. The amount of internalised peptides was calculated by comparing the fluorescence intensity of the sample with the calibration curve. For the calibration curve, we prepared a range of peptide amounts (from 2 to 500 pmol) in the lysis buffer (50 mM Tris pH 7.4, 1 M NaCl, 1% Nonidet P40) in the presence of one million suspended cells. The samples were sonicated 15 min and centrifuged at 16.000 g for 10 min. Fluorescence intensity in the supernatants was monitored with a MOS 200 M fluorimeter (Biologic SAS, France) and the maximal intensity was detected around λ = 525 nm. The fluorescence signal of peptides only was obtained by subtracting the fluorescence intensity of cell lysates (autofluorescence) from the fluorescence intensity of the sample.

## Dabcyl–RRRRRRK(MTX)–NH2 [Dabcyl–Arg6–Lys(MTX)–NH2]
MCF-7 cells
  IC50: 46.4 ± 18.5 µM
MDA-MB-231 cells
  IC50: 50.2 ± 16 µM

## COc1cccc2c1C(=O)c1c(O)c3c(c(O)c1C2=O)C[C@@](O)(C(C)=O)C[C@@H]3O[C@H]1C[C@H](NC(=O)CCC(=O)O)[C@H](O)[C@H](C)O1 [Suc–Dau, reference compound]
HL-60 cells [1]
  IC50: 33.5 ± 1.1 µM
MCF-7 cells
  IC50: 24.5 ± 7.1 µM
MDA-MB-231 cells
  IC50: > 100 µM

## Dabcyl–RRRRK(MTX)–NH2 [Dabcyl–Arg4–Lys(MTX)–NH2]
MDA-MB-231 cells
  IC50: 70.9 ± 30.1 µM

## CN(C)c1ccc(/N=N/c2ccc(C(=O)N[C@@H](CCCNC(=N)N)C(=O)N[C@@H](CCCNC(=N)N)C(=O)N[C@@H](CCCNC(=N)N)C(=O)N[C@@H](CCCNC(=N)N)C(=O)N[C@@H](CCCCNC(=O)c3ccc4c(c3)C(=O)OC43c4ccc(O)cc4Oc4cc(O)ccc43)C(N)=O)cc2)cc1 [Dabcyl–Arg4–Lys(Cf)–NH2] (X1-RRRRK(5FAM)-NH2)
HL-60 cells [2]
  Fluorescence intensity of the cells, times higher than hexaarginine: 1.6 times and 2.8 times
CHO-K1 cells [3]; [peptide] 1 μM
  4 °C/37 °C (Flow cyto.): 0.17
CHO-K1 cells [3]; [peptide] 2.5 μM
  4 °C/37 °C (Flow cyto.): 0.12
CHO-K1 cells [3]; [peptide] 5 μM
  4 °C/37 °C (Flow cyto.): 0.10
CHO-K1 cells [3]; [peptide] 10 μM
  4 °C/37 °C (Flow cyto.): 0.04
CHO-K1 cells [4]; [peptide] 1 μM
  Total (37 °C–4 °C) (pmoles) Endocyt.: 0.3 pmol
  4 °C/37 °C (Fluoro): 0.57
  Total 4 °C (pmoles) Transloc.: 0.4 ± 0.06 pmol
  Total 37 °C (pmoles) Endocyt. + Transloc.: 0.7 ± 0.1 pmol
CHO-K1 cells [4]; [peptide] 2.5 μM
  Total (37 °C–4 °C) (pmoles) Endocyt.: 1.3 pmol
  4 °C/37 °C (Fluoro): 0.43
  Total 4 °C (pmoles) Transloc.: 0.9 ± 0.1 pmol
  Total 37 °C (pmoles) Endocyt. + Transloc.: 2.2 ± 0.2 pmol
CHO-K1 cells [4]; [peptide] 5 μM
  Total (37 °C–4 °C) (pmoles) Endocyt.: 6 pmol
  4 °C/37 °C (Fluoro): 0.22
  Total 4 °C (pmoles) Transloc.: 1.8 ± 0.1 pmol
  Total 37 °C (pmoles) Endocyt. + Transloc.: 7.8 ± 0.9 pmol
CHO-K1 cells [4]; [peptide] 10 μM
  Total (37 °C–4 °C) (pmoles) Endocyt.: 26 pmol
  4 °C/37 °C (Fluoro): 0.14
  Total 4 °C (pmoles) Transloc.: 4.2 ± 0.3 pmol
  Total 37 °C (pmoles) Endocyt. + Transloc.: 30 ± 3.3 pmol
